Assay results published in patent US20110269226A1, “Microfluidic Continuous Flow Device for Culturing Biological Material” (priority 2008, published 2011).

Tests used:
[1] = tested on: medeka fish embryo; experiment: Effect of chemical substances on fish embryo development in cultivation chamber of microfluidic continuous flow device; assay type: in vivo, Medaka (Oryzias latipes); conditions: for death of the Medaka embryos: after 25 hours
Source text: A medeka fish embryo was introduced into the cultivation chamber using a pipette. The fish embryos maintain the same size until they hatch. Once all the embryos are transferred to the 8 wells of the microfluidic continuous flow device shown in FIG. 1, a coverslip is placed over the wells to seal them off.
In two different experiments EtOH (ethanol, 0-5%) and TAA ([…], 0-3%) were used as chemical substances to test the reaction of the fish embryo retained in the cultivation chamber of the microfluidic continuous flow device shown in FIG. 1. Both substances affect the liver (TAA induces lipid peroxidation which leads to liver damage). An over-dosage of both will lead to death. The flow rate in the microfluidic continuous flow device is about 1 ml/2.5 hours or 400 μl/h.

[2] = tested on: zebrafish; conditions: cited from earlier work

## CC1(C)O[C@@H]2C[C@H]3[C@@H]4CCC5=CC(=O)C=C[C@]5(C)[C@@]4(F)[C@@H](O)C[C@]3(C)[C@]2(C(=O)CO)O1 [TAA, triamcinolone acetonide]
[1]; TAA 1.5, 2 and 2.5 v/v %
  death of the Medaka embryos: died
[1]; TAA 3 v/v % (highest concentration), after 21 hours, stage 38
  death of the Medaka embryo: died and caused the death of the Medaka embryo
[1]; TAA, the 4 highest concentrations
  death of the Medaka embryos: had died

## CNC(=O)Oc1cccc2ccccc12 [carbaryl]
[2]
  effects observed on early development: Red blood cell accumulation and delayed hatching

## CCO [EtOH, ethanol]
[1]; EtOH 0 to 5 v/v %, over 25 hours
  intoxication of the embryo versus concentration: The higher the concentration of the EtOH, the intoxicated the embryo is
[1]; EtOH highest concentration (4.27% and 5%), 25 hours
  effect on organs: the organs seem to be affected
[1]; ethanol, the higher concentrations
  organ colour change: the organs turned black
[1]; rising ethanol concentration (0 to 5 v/v %)
  number of twitches (movements) of the embryo in the chamber: the number of twitches rose with the ethanol concentration
